Here are results for 39 substances from patent US6972319B1, “Pituitary adenylate cyclase activating peptide (PACAP)receptor 3 (R3) agonists and their pharmacological methods of use” (priority 1999, dated 2005).

No end group written: not given here.

The term EC50 denotes the midpoint of the concentration-response curve.

The target of one experiment is T1, PACAP-R3 (Homo sapiens, UniProt P41587).
T1 sequence (P41587 24-438): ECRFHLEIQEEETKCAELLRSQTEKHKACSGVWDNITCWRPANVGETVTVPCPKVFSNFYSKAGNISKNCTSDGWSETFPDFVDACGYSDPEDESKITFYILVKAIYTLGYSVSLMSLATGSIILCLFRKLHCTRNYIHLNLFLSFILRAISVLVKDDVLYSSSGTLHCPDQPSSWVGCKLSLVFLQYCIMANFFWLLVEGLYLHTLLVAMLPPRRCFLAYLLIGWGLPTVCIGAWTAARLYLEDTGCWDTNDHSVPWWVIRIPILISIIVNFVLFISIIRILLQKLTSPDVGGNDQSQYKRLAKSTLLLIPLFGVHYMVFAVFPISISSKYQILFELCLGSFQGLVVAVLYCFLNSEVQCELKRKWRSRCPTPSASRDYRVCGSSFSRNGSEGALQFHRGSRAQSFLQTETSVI
The experiment is described as follows: Cyclic AMP SPA on CHO cells expressing PACAP R3. The note with it: for EC50: cAMP SPA, CHO cells transfected with PACAP-R3, concentration at which 50% of maximum PACAP27 activity is achieved, NA = no detectable activities, read-out: R3 EC50; for R3 Selectivity: ratio of EC50 at R2 versus EC50 at R3. Type of experiment: cell-based. Also on record: expressed in transfected cells; host or cells: CHO cells (Geneticin selection). In outline:
(§1)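 cAMP SPA readout; CHO stable lines, 24 h culture before use. Peptide treatment 15 min, 37 C, buffer with IBMX 100 uM plus trypsin inhibitor and bacitracin. EC50 = conc. reaching half of max PACAP27 response; R3 selectivity = EC50(R2)/EC50(R3).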

In a further experiment the target is T2, PACAP-R2 (Homo sapiens, UniProt P32241).
T2 construct: expressed in transfected cells; host or cells: CHO cells
T2 sequence (P32241 31-457): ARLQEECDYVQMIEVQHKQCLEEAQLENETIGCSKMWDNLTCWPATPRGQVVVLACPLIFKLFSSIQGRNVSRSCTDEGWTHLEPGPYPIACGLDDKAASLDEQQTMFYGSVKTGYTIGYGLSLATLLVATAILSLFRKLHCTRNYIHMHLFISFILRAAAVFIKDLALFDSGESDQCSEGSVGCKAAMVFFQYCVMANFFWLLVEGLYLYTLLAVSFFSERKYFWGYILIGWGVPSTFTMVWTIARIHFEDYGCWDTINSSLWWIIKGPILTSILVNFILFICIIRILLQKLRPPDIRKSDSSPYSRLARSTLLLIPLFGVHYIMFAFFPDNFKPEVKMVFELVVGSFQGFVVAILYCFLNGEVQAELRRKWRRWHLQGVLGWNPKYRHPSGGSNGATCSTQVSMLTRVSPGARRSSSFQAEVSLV
The experiment is described as follows: Cyclic AMP SPA on CHO cells transfected with PACAP-R2. Type of experiment: cell-based. The note with it: cAMP SPA, concentration at which 50% of maximum PACAP27 activity is achieved, NA = no detectable activities, read-out: R2 EC50. In outline: as §1

On to “HSDAVFTDNYTRLRKQMAAKKYLNSIKNIR [Peptide R3P141]”, for which, on PACAP-R3, the EC50 stood at 0.2 nM and the “R3 Selectivity” value is listed as 100. Besides, the EC50 on PACAP-R2 is 20 nM.

As to “HSDGIFTDSYSRYRKQMAVKKYLSAVRHGQT-NH2 [Peptide R3P15]”, on PACAP-R3, the concentration for a half-maximal effect (EC50) turned out to be 5 nM and the “R3 Selectivity” value is recorded as 2. On PACAP-R2, the EC50 turned out to be 12 nM.

Turning to “HSDAVFTDNYTRLRKQMAAKKYLNSIKNRR [Peptide R3P147]”, on PACAP-R3, the EC50 amounted to 0.2 nM and the “R3 Selectivity” value turned out to be 500. The EC50 on PACAP-R2 is 100 nM.

For the substance HSDGIFTDSYSRYRKQKAVKKYLAAVL-NH2 [PAC17], on PACAP-R3, the 50% effective concentration (EC50) worked out at 0.15 nM and the “R3 Selectivity” value is recorded as 1.6. The EC50 at PACAP-R2 came to 0.25 nM.

“H-HSDGIFTDSYSRYRKQMAVKKYLAAVKQGGT-NH2 [Peptide R3P16]”: on PACAP-R3, the EC50 turned out to be 10 nM and the “R3 Selectivity” value was 1.4. Moreover, the half-maximal effective concentration (EC50) at PACAP-R2 was 14 nM.

For “HSDAVFTDQYTRLRKQLAAHKYLNTIKNKRY [Peptide R3P75]”, on PACAP-R3, the EC50 came to 0.3 nM and the “R3 Selectivity” value was above 500. In addition, the 50% effective concentration (EC50) on PACAP-R2 is above 150 nM.

As to “HSDAVFTDNYTRLRKQMAAKKYLNSITNKR [Peptide R3P130]”, on PACAP-R3, the EC50 came out at 1 nM and the “R3 Selectivity” value came to 40. In addition, the EC50 at PACAP-R2 turned out to be 40 nM.

As for “HSDAVFTDNYTRLRKQMAAKKYLNSIFNKR [Peptide R3P120]”, on PACAP-R3, the half-maximal effective concentration (EC50) was 0.2 nM and the “R3 Selectivity” value is 50. In addition, the EC50 on PACAP-R2 was found to be 10 nM.

“HSDAVFTDNYTRLRKQMAGKKYLNSIKNKR [Peptide R3P101]”: the figures for the 50% effective concentration (EC50) at PACAP-R3 and at PACAP-R2 were 1 nM and 400 nM, respectively. For the same substance, the “R3 Selectivity” value on PACAP-R3 is given as 400.

As for HSDGIFTDSYSRYRKKMAVKKYLAAVL-NH2 [PAC16], the EC50 on PACAP-R3 and on PACAP-R2 was 0.2 nM throughout. Moreover, on PACAP-R3, the “R3 Selectivity” value turned out to be 1.

As to “HSDAVFTDNYTRLRKQMARKKYLNSIRNRI [rR3P192]”, at PACAP-R3, the concentration for a half-maximal effect (EC50) is 0.6 nM and the “R3 Selectivity” value is recorded as 60. Also, on PACAP-R2, the EC50 came out at 40 nM.

With “Ac-HSDAVFTENYTKLRKQLAAKKYLNDLKKGGT-NH2 [Peptide R3P1]”, at PACAP-R3, the 50% effective concentration (EC50) came to 2 nM and the “R3 Selectivity” value is above 50. At PACAP-R2, the EC50 was above 100 nM.

In the case of “HSDAVFTDNYTRLRKQMAAKKYLNSIKNGR [Peptide R3P139]”, the values for the EC50 at PACAP-R3 and at PACAP-R2 were 0.4 nM and 20 nM, respectively. In addition, at PACAP-R3, the “R3 Selectivity” value stood at 50.

On to “HSDAVFTDNYTRLRKQMAAKKYLNSIHNKR [Peptide R3P122]”, for which, at PACAP-R3, the half-maximal effective concentration (EC50) was determined as 0.2 nM and the “R3 Selectivity” value came out at 50. For the same substance, the half-maximal effective concentration (EC50) on PACAP-R2 stood at 10 nM.

For “HSDAVFTDNYTRLRKQMAKKKYLNSIQNRI [rR3P186]”, at PACAP-R3, the EC50 is 1.6 nM and the “R3 Selectivity” value is 44. In addition, the EC50 on PACAP-R2 came out at 70 nM.

For “HSDAVFTDNYTRLRKQMAAKKYLQSIKNKRY [Peptide R3P69]”, at PACAP-R3, the EC50 was 0.5 nM and the “R3 Selectivity” value was determined as 190. The EC50 on PACAP-R2 is 90 nM.

With “HSDAVFTDNYTRLRKQLAAKKYLNDILKGGT [Peptide R3P23]”, at PACAP-R3, the EC50 amounted to 0.43 nM and the “R3 Selectivity” value came out at 23. Also, at PACAP-R2, the EC50 was 10 nM.

“HSDAVFTENYTKLRKQLAAKKYLNDLKK [Peptide R3P5]”: on PACAP-R3, the EC50 is 7 nM and the “R3 Selectivity” value is on record as 30. Besides, the EC50 on PACAP-R2 came out at 200 nM.

Take “H-HSDAVFTDNYTRLRKQMAAKKYLNSISNKR [Peptide R3P129]”: at PACAP-R3, the EC50 was determined as 1 nM and the “R3 Selectivity” value is 50. In addition, the EC50 at PACAP-R2 stood at 50 nM.

With “HSDAVFTDNYTRLRKQMAAKKYLNSIKNNR [Peptide R3P144]”, the EC50 at PACAP-R3 came to 3 nM; on PACAP-R2 it was 300 nM. In addition, the “R3 Selectivity” value at PACAP-R3 came to 100.

Take “HSDAVFTDNYTRLRKQMAAKKYLNSIKKKRY [Peptide R3P52]”: the values for the concentration giving a half-maximal response (EC50) at PACAP-R3 and on PACAP-R2 were 0.4 nM and above 100 nM, respectively. Besides, the “R3 Selectivity” value on PACAP-R3 is above 250.

With HSDGIFTDSYSRYREQMAVKKYLAAVL-NH2 [PAC15], on PACAP-R3, the EC50 turned out to be 0.2 nM and the “R3 Selectivity” value came out at 12. On PACAP-R2, the EC50 worked out at 2.4 nM.

As to HSDGIFTDKYSRYRKQMAVKKYLAAVL-NH2 [PAC9], at PACAP-R3, the EC50 turned out to be 0.7 nM and the “R3 Selectivity” value is on record as 1. Also, on PACAP-R2, the EC50 came to 0.9 nM.

Take “HSDAVFTDNYTRLRKQVAVKKYLQSILKKR [Peptide R3P88]”: the EC50 at PACAP-R3 turned out to be 0.08 nM; at PACAP-R2, 0.89 nM. In addition, the “R3 Selectivity” value at PACAP-R3 is on record as 12.

Turning to “HSDAVFTDNYTRLRKQMARKKYLNSIKNKR [Peptide R3P110]”, on PACAP-R3, the EC50 worked out at 0.5 nM and the “R3 Selectivity” value is 200. Moreover, the EC50 on PACAP-R2 was 100 nM.

In the case of “H-HSDGIFTDSYSRYRKQMAKKKYLAAVL-NH2 [PAC19]”, on PACAP-R3, the half-maximal effective concentration (EC50) is 0.4 nM and the “R3 Selectivity” value turned out to be 20. Further, the EC50 at PACAP-R2 was determined as 8 nM.

Take “HSDAVFTDNYTRLRKQVAAKKYLNSIKKKR [Peptide R3P78]”: at PACAP-R3, the EC50 is 1.1 nM and the “R3 Selectivity” value was 230. The EC50 at PACAP-R2 came to 250 nM.

Consider HSDGIFTDSYSRYRKQMAVKEYLAAVL-NH2 [PAC21], for which, on PACAP-R3, the EC50 amounted to 0.24 nM and the “R3 Selectivity” value was found to be 10. In addition, the EC50 on PACAP-R2 came to 2.5 nM.

As to “HSDAVFTDNYTRLRKQMAVKKYLNSILK [Peptide R3P43]”, on PACAP-R3, the EC50 worked out at 0.08 nM and the “R3 Selectivity” value is 10. Also, the EC50 at PACAP-R2 amounted to 0.8 nM.

Consider “HSDAVFTDNYTKLRKQLAAKKYLNDILNGGT [Peptide R3P11]”, for which the results for the EC50 at PACAP-R3 and on PACAP-R2 were 3 nM and 10 nM, respectively. Besides, the “R3 Selectivity” value on PACAP-R3 amounted to 3.

For the substance “HSDAVFTDNYTRLRKQMAAKKYLNSIKNKE [Peptide R3P156]”, the EC50 on PACAP-R3 amounted to 1 nM; at PACAP-R2, 100 nM. Also, on PACAP-R3, the “R3 Selectivity” value was found to be 100.

On to “HSDAVFTDNYTRLRKQLAAKKYLNDIKK [Peptide R3P33]”, for which the results for the 50% effective concentration (EC50) on PACAP-R3 and at PACAP-R2 were 0.5 nM and above 100 nM, respectively. Also, at PACAP-R3, the “R3 Selectivity” value is given as above 200.

As for HSDGIFTDSYSRYRKQMAVKKYLAAVK-NH2 [PAC27], on PACAP-R3, the EC50 came to 1.1 nM and the “R3 Selectivity” value amounted to 1.4. Besides, the EC50 at PACAP-R2 was found to be 1.5 nM.

As for “HSDAVFTDNYTRLRKQMAAKKYLNSIKNKI [Peptide R3P160]”, at PACAP-R3, the concentration for a half-maximal effect (EC50) worked out at 0.2 nM and the “R3 Selectivity” value came to 500. Further, the EC50 on PACAP-R2 is 100 nM.

Consider “HSDAVFTDNYTRLRKQMAVKKYLNSIKKKRY [Peptide R3P56]”, for which the half-maximal effective concentration (EC50) at PACAP-R3 turned out to be 0.4 nM; on PACAP-R2, 40 nM. In addition, the “R3 Selectivity” value on PACAP-R3 came out at 100.

On to “HSDAVFTDNYTRLRKQMAIKKYLNSIKNKR [Peptide R3P103]”, for which, on PACAP-R3, the concentration giving a half-maximal response (EC50) came out at 0.05 nM and the “R3 Selectivity” value was found to be 8. Besides, the EC50 at PACAP-R2 was 0.4 nM.

For the substance “HSDAVFTDNYTRLRKQMAAKKYLNSIPNRI [rR3P179]”, at PACAP-R3, the EC50 was 1.5 nM and the “R3 Selectivity” value is recorded as 150. Further, the EC50 at PACAP-R2 is 230 nM.

For “HSDAVFTDNYTRLRKQMAKKKYLNSIRNRI [rR3P191]”, on PACAP-R3, the EC50 turned out to be 2.7 nM and the “R3 Selectivity” value is recorded as above 80. Besides, the EC50 on PACAP-R2 is above 200 nM.

For the substance “HSDAVFTDNYTRLRKQMAAKKYLNSIKNVR [Peptide R3P150]”, on PACAP-R3, the EC50 worked out at 0.8 nM and the “R3 Selectivity” value turned out to be 50. Further, on PACAP-R2, the EC50 is 40 nM.
